#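 Where inhibition never reached the appropriate level, the endpoint shown equals the highest concentration tested. Otherwise, values were interpolated linearly from a five-concentration, 48-hour dose response in 96-well plates. At the TGI there is no net growth.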
# Columns and labels:
# Test in all cases: DTP human tumour cell line panel, 48 h
# [1] = system: 786-0 renal
# [2] = system: A549 NSCLC
# [3] = system: ACHN renal
# [4] = system: CAKI-1 renal
# [5] = system: CCRF-CEM leukemia
# [6] = system: COLO 205 colon
# [7] = system: DLD-1 colon
# [8] = system: DMS 114 small cell lung
# [9] = system: DMS 273 small cell lung
# [10] = system: EKVX NSCLC
# [11] = system: HCC-2998 colon
# [12] = system: HCT-116 colon
# [13] = system: HCT-15 colon
# [14] = system: HL-60(TB) leukemia
# [15] = system: HOP-18 NSCLC
# [16] = system: HOP-62 NSCLC
# [17] = system: HOP-92 NSCLC
# [18] = system: HT29 colon
# [19] = system: IGROV1 ovarian
# [20] = system: K-562 leukemia
# [21] = system: KM12 colon
# [22] = system: KM20L2 colon
# [23] = system: LOX IMVI melanoma
# [24] = system: LXFL 529 NSCLC
# [25] = system: M14 melanoma
# [26] = system: M19-MEL melanoma
# [27] = system: MALME-3M melanoma
# [28] = system: MOLT-4 leukemia
# [29] = system: NCI-H23 lung
# [30] = system: NCI-H460 lung
# [31] = system: OVCAR-3 ovarian
# [32] = system: OVCAR-4 ovarian
# [33] = system: OVCAR-5 ovarian
# [34] = system: OVCAR-8 ovarian
# [35] = system: RPMI-8226 leukemia
# [36] = system: RXF-631 renal
# [37] = system: SF-268 CNS
# [38] = system: SF-295 CNS
# [39] = system: SF-539 CNS
# [40] = system: SK-MEL-2 melanoma
# [41] = system: SK-MEL-5 melanoma
# [42] = system: SK-OV-3 ovarian
# [43] = system: SN12C renal
# [44] = system: SNB-19 CNS
# [45] = system: SNB-75 CNS
# [46] = system: SNB-78 CNS
# [47] = system: SW-620 colon
# [48] = system: TK-10 renal
# [49] = system: UACC-257 melanoma
# [50] = system: UACC-62 melanoma
# [51] = system: UO-31 renal
# [52] = system: A498 renal
# [53] = system: NCI-H226 lung
# [54] = system: NCI-H522 lung
# [55] = system: RXF 393 renal
# [56] = system: SK-MEL-28 melanoma
# [57] = system: U251 CNS
# [58] = system: XF 498 CNS
# [59] = system: SR leukemia
smiles,measurement,setting,value
CC1CC2OC(=O)CC2C[C@@H]1O[Si](C)(C)C(C)(C)C (some centres undefined),TGI,[1],> 100 µM
same,TGI,[2],> 100 µM
same,TGI,[3],> 100 µM
same,TGI,[4],> 100 µM
same,TGI,[5],> 100 µM
same,TGI,[6],> 100 µM
same,TGI,[7],> 100 µM
same,TGI,[8],89.4 µM
same,TGI,[9],> 100 µM
same,TGI,[10],> 100 µM
same,TGI,[11],> 100 µM
same,TGI,[12],> 100 µM
same,TGI,[13],> 100 µM
same,TGI,[14],45.5 µM
same,TGI,[15],> 100 µM
same,TGI,[16],> 100 µM
same,TGI,[17],34.7 µM
same,TGI,[18],> 100 µM
same,TGI,[19],> 100 µM
same,TGI,[20],> 100 µM
same,TGI,[21],> 100 µM
same,TGI,[22],> 100 µM
same,TGI,[23],> 100 µM
same,TGI,[24],> 100 µM
same,TGI,[25],> 100 µM
same,TGI,[26],> 100 µM
same,TGI,[27],> 100 µM
same,TGI,[28],56.7 µM
same,TGI,[29],> 100 µM
same,TGI,[30],> 100 µM
same,TGI,[31],> 100 µM
same,TGI,[32],> 100 µM
same,TGI,[33],> 100 µM
same,TGI,[34],> 100 µM
same,TGI,[35],51.8 µM
same,TGI,[36],> 100 µM
same,TGI,[37],> 100 µM
same,TGI,[38],> 100 µM
same,TGI,[39],> 100 µM
same,TGI,[40],> 100 µM
same,TGI,[41],97.4 µM
same,TGI,[42],> 100 µM
same,TGI,[43],> 100 µM
same,TGI,[44],> 100 µM
same,TGI,[45],> 100 µM
same,TGI,[46],> 100 µM
same,TGI,[47],> 100 µM
same,TGI,[48],> 100 µM
same,TGI,[49],> 100 µM
same,TGI,[50],> 100 µM
same,TGI,[51],> 100 µM
[C-]#[N+][C@@H]1C2[C@H](CC[C@@]1(C)O)C(=C)CC[C@@H]2[C@@]1(C)CC[C@H](Cl)C(C)(C)O1 (some centres undefined),TGI,[1],23.8 µM
same,TGI,[52],41.7 µM
same,TGI,[2],77.6 µM
same,TGI,[3],33.2 µM
same,TGI,[4],27.7 µM
same,TGI,[5],21.8 µM
same,TGI,[6],12.8 µM
same,TGI,[7],50.8 µM
same,TGI,[8],9.08 µM
same,TGI,[10],60.2 µM
same,TGI,[11],36.7 µM
same,TGI,[12],12.8 µM
same,TGI,[13],18 µM
same,TGI,[14],5.66 µM
same,TGI,[15],21.9 µM
same,TGI,[18],29.8 µM
same,TGI,[19],41.7 µM
same,TGI,[20],13.5 µM
same,TGI,[21],25 µM
same,TGI,[22],> 100 µM
same,TGI,[23],16.8 µM
same,TGI,[24],> 100 µM
same,TGI,[25],12.6 µM
same,TGI,[26],21.9 µM
same,TGI,[27],48.1 µM
same,TGI,[53],20.8 µM
same,TGI,[29],53.4 µM
same,TGI,[30],52.6 µM
same,TGI,[54],22.4 µM
same,TGI,[31],9.97 µM
same,TGI,[32],33.7 µM
same,TGI,[34],21 µM
same,TGI,[35],20.9 µM
same,TGI,[55],35.4 µM
same,TGI,[36],> 100 µM
same,TGI,[37],> 100 µM
same,TGI,[38],28.3 µM
same,TGI,[39],39.4 µM
same,TGI,[40],27.8 µM
same,TGI,[56],> 100 µM
same,TGI,[41],15.7 µM
same,TGI,[42],82.6 µM
same,TGI,[43],26.3 µM
same,TGI,[44],> 100 µM
same,TGI,[45],> 100 µM
same,TGI,[47],31.1 µM
same,TGI,[48],84.2 µM
same,TGI,[57],36.3 µM
same,TGI,[49],45.4 µM
same,TGI,[50],20.1 µM
same,TGI,[51],7.17 µM
same,TGI,[58],26.4 µM
N#CC(/C(CCCC(=O)Nc1cccc([N+](=O)[O-])c1)=N/NC(=O)c1cc2ccccc2cc1O)c1ccccc1 (centres undefined),TGI,[1],96.3 µM
same,TGI,[52],92.8 µM
same,TGI,[2],> 100 µM
same,TGI,[3],> 100 µM
same,TGI,[4],> 100 µM
same,TGI,[5],43.3 µM
same,TGI,[6],46.9 µM
same,TGI,[7],> 100 µM
same,TGI,[8],45.5 µM
same,TGI,[10],> 100 µM
same,TGI,[11],> 100 µM
same,TGI,[12],> 100 µM
same,TGI,[13],> 100 µM
same,TGI,[14],48.7 µM
same,TGI,[15],> 100 µM
same,TGI,[16],> 100 µM
same,TGI,[17],95.9 µM
same,TGI,[18],> 100 µM
same,TGI,[19],> 100 µM
same,TGI,[20],> 100 µM
same,TGI,[21],> 100 µM
same,TGI,[22],> 100 µM
same,TGI,[23],49.4 µM
same,TGI,[24],> 100 µM
same,TGI,[25],39.6 µM
same,TGI,[26],34.9 µM
same,TGI,[27],> 100 µM
same,TGI,[28],> 100 µM
same,TGI,[53],> 100 µM
same,TGI,[29],61.5 µM
same,TGI,[30],> 100 µM
same,TGI,[54],56.9 µM
same,TGI,[31],> 100 µM
same,TGI,[32],> 100 µM
same,TGI,[33],> 100 µM
same,TGI,[34],> 100 µM
same,TGI,[35],> 100 µM
same,TGI,[55],72.3 µM
same,TGI,[36],> 100 µM
same,TGI,[37],> 100 µM
same,TGI,[38],> 100 µM
same,TGI,[39],72.5 µM
same,TGI,[56],> 100 µM
same,TGI,[41],40.8 µM
same,TGI,[42],> 100 µM
same,TGI,[43],> 100 µM
same,TGI,[44],> 100 µM
same,TGI,[45],> 100 µM
same,TGI,[59],> 100 µM
same,TGI,[47],> 100 µM
same,TGI,[48],> 100 µM
same,TGI,[57],> 100 µM
same,TGI,[49],98.5 µM
same,TGI,[50],45 µM
same,TGI,[51],> 100 µM
same,TGI,[58],63 µM

# — PubChem BioAssay (NCI)
